Values of other authors in patent US20040166069A1, “Boosting Tyrosinase Inhibiting Activity of Skin Whitening and Sunscreen Compositions” (priority 2003, published 2004).

System: de-pigmentation
Settings: relative to hydroquinone

Row | Compound | quantity required compared to the quantity of hydroquinone used to achieve a similar effect
1 | OC[C@H]1O[C@@H](Oc2ccc(O)cc2)[C@H](O)[C@@H](O)[C@@H]1O [arbutin] | over 100 times
2 | O=C1O[C@H]([C@@H](O)CO)C(O)=C1O [ascorbic acid] | 17 times
